Assay [1] deals with T1, HDAC1 enzyme (Homo sapiens, UniProt Q13547).
T1 construct: prepared by transducing full length HDAC1 and HDAC6 genes into Sf-9 insect cells; GST; purchased SignalChem; host or cells: Sf-9 insect cells
The assay can be described thus: HDAC1 enzyme inhibitory assay (HDAC-Glo I/II Assay kit). Format: biochemical. Conditions: 1 μM test compound; read-out: HDAC1 inhibitory rate (%) (1 μM). Here is the method: HDAC1 enzyme and HDAC6 enzyme each prepared by transducing full length HDAC1 and HDAC6 genes into Sf-9 insect cells and purifying by GST affinity column were purchased from SignalChem. Using these enzymes, HDAC1 and/or HDAC6 enzyme inhibitory activities of the compound of the present invention were evaluated. Enzymes were used after preserved at −70° C. HDAC1 or HDAC6 enzyme inhibitory activity of the compound of the present invention was measured using HDAC-Glo™ I/II Assay kit (Promega) according to the following experimental method. The test compound diluted with assay buffer (24 mM Tris-HCl (pH 7.5), 1 mM MgCl2, 0.35 mM KCl, 135 mM NaCl, 0.6 mM Glutathione, 0.01% Tween-20) was added to a 384-well plate by each 2 μL. Then, HDAC1 or HDAC6 enzyme solution diluted with assay buffer was added thereto by each 4 μL, and the plate was incubated at room temperature for 60 min. After incubated, HDAC substrate-Developer solution prepared according to Promega protocol attached to the assay kit was added to the 384-well plate by each 2 μL, and the enzyme reaction was started. After reacting at room temperature for 20 min, luminescence level was measured using plate reader Envision (PerkinElmer). The inhibitory activity of each compound was calculated as a relative activity value when luminescence level in wells without enzyme is considered as 100% inhibition.

Assay [2] concerns the target T2, HDAC6 enzyme (Homo sapiens, UniProt Q9UBN7).
T2 construct: prepared by transducing full length HDAC1 and HDAC6 genes into Sf-9 insect cells; GST; purchased SignalChem; host or cells: Sf-9 insect cells
T2 sequence (Q9UBN7 1-1215): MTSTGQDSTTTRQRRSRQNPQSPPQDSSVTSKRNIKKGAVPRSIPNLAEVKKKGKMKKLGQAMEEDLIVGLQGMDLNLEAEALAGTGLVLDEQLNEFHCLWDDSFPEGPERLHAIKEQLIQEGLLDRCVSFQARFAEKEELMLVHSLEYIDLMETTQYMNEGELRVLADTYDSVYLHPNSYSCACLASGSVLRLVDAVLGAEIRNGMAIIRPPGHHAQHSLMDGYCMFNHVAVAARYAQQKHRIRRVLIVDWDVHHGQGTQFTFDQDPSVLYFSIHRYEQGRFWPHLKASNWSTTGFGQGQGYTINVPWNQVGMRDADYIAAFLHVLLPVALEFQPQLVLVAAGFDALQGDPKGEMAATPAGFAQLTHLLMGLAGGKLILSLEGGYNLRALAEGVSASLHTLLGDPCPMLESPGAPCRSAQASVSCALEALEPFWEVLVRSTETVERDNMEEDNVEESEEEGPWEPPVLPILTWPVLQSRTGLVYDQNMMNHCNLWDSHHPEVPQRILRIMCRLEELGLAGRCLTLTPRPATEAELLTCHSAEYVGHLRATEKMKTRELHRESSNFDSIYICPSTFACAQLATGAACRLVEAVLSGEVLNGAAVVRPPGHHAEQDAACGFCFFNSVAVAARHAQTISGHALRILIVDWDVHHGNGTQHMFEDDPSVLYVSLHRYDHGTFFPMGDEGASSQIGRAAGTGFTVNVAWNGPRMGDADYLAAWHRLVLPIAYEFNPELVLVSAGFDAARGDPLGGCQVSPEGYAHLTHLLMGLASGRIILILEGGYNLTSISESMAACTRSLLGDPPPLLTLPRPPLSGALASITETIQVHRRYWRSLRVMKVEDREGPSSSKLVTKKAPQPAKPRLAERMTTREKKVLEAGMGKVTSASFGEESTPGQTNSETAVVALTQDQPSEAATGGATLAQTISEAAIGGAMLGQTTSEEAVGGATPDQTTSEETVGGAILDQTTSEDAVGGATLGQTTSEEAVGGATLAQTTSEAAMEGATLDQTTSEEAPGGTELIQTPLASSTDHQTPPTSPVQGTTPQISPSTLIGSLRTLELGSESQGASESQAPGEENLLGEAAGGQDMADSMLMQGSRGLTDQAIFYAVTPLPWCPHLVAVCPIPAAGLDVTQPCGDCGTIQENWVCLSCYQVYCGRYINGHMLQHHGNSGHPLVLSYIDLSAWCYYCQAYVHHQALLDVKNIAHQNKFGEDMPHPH
The assay can be described thus: HDAC6 enzyme inhibitory assay (HDAC-Glo I/II Assay kit). The class given is biochemical. Conditions: 1 μM test compound; read-out: HDAC6 inhibitory rate (%) (1 μM). The procedure, abridged: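 Full-length GST-purified HDAC1 or HDAC6 (Sf-9 expressed) preincubated 60 min at room temperature with compound in Tris-HCl pH 7.5 buffer with glutathione and Tween-20. HDAC-Glo substrate-developer added, 20 min at room temperature, then luminescence read; inhibition relative to no-enzyme wells as 100%.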

T1 sequence (Q13547 whole entry): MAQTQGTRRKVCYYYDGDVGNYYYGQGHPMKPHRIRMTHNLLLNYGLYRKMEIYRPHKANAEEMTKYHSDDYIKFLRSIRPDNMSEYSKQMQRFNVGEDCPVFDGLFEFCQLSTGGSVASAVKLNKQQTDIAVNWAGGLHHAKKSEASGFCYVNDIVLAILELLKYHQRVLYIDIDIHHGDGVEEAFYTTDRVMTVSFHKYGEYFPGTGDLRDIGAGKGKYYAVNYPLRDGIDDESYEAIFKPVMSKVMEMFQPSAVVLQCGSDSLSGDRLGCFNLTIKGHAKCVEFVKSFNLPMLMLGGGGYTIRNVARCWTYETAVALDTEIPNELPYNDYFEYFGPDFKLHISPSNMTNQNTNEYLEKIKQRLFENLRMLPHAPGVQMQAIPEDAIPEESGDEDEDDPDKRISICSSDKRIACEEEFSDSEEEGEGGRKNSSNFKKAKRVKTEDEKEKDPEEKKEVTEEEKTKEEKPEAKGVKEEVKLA

On to `Cc1cccc(C(=O)N2CCOCC2CNC(=O)c2ccc(-c3noc(C(F)(F)F)n3)cc2)c1` (centres unmarked) [Example 10, N-((4-(3-methylbenzoyl)morpholin-3-yl)methyl)-4-(5-(trifluoromethyl)-1,2,4-oxadiazol-3-yl)benzamide], for which the inhibition at 1 µM in assay [1] came out at 18%; in assay [2] it was 104%.

Consider `Cc1ccc(C(=O)N2CCOCC2CNC(=O)c2ccc(-c3noc(C(F)(F)F)n3)cc2)cc1` (centres unmarked) [Example 11, N-((4-(4-methylbenzoyl)morpholin-3-yl)methyl)-4-(5-(trifluoromethyl)-1,2,4-oxadiazol-3-yl)benzamide], for which the inhibition at 1 µM in assay [1] was 21%; in assay [2], 99%.

For `O=C(NCC1COCCN1C(=O)c1ccccn1)c1ccc(-c2noc(C(F)(F)F)n2)cc1` (centres unmarked) [Example 12, N-((4-(pyridin-2-ylcarbonyl)morpholin-3-yl)methyl)-4-(5-(trifluoromethyl)-1,2,4-oxadiazol-3-yl)benzamide], the figures for the inhibition at 1 µM in assay [1] and in assay [2] were 7% and 98%, respectively.

For `O=C(NCC1COCCN1C(=O)c1cccnc1)c1ccc(-c2noc(C(F)(F)F)n2)cc1` (centres unmarked) [Example 13, N-((4-(pyridin-3-ylcarbonyl)morpholin-3-yl)methyl)-4-(5-(trifluoromethyl)-1,2,4-oxadiazol-3-yl)benzamide], the inhibition at 1 µM in assay [1] was determined as 13%; in assay [2], 97%.

As to `O=C(NCC1COCCN1C(=O)c1ccncc1)c1ccc(-c2noc(C(F)(F)F)n2)cc1` (centres unmarked) [Example 14, N-((4-isonicotinoylmorpholin-3-yl)methyl)-4-(5-(trifluoromethyl)-1,2,4-oxadiazol-3-yl)benzamide], the inhibition at 1 µM amounted to 20% in assay [1] and 98% in assay [2].

For `O=C(NCC1COCCN1C(=O)c1cccs1)c1ccc(-c2noc(C(F)(F)F)n2)cc1` (centres unmarked) [Example 15, N-((4-(2-thienylcarbonyl)morpholin-3-yl)methyl)-4-(5-(trifluoromethyl)-1,2,4-oxadiazol-3-yl)benzamide], the inhibition at 1 µM in assay [1] worked out at 20%; in assay [2], 98%.

Regarding `Cn1nc(C(=O)N2CCOCC2CNC(=O)c2ccc(-c3noc(C(F)(F)F)n3)cc2)c2ccccc21` (centres unmarked) [Example 18, N-((4-((1-methyl-1H-indazol-3-yl)carbonyl)morpholin-3-yl)methyl)-4-(5-(trifluoromethyl)-1,2,4-oxadiazol-3-yl)benzamide], the inhibition at 1 µM was 9% in assay [1] and 98% in assay [2].

On to `O=C(NCC1COCCN1C(=O)c1cc2ccccc2o1)c1ccc(-c2noc(C(F)(F)F)n2)cc1` (centres unmarked) [Example 19, N-((4-(1-benzofuran-2-ylcarbonyl)morpholin-3-yl)methyl)-4-(5-(trifluoromethyl)-1,2,4-oxadiazol-3-yl)benzamide], for which the inhibition at 1 µM in assay [1] came to 24%; in assay [2], 98%.

Turning to `O=C(NCC1COCCN1C(=O)c1ccc2nccn2c1)c1ccc(-c2noc(C(F)(F)F)n2)cc1` (centres unmarked) [Example 20, N-((4-(imidazo[1,2-a]pyridin-6-ylcarbonyl)morpholin-3-yl)methyl)-4-(5-(trifluoromethyl)-1,2,4-oxadiazol-3-yl)benzamide], the inhibition at 1 µM in assay [1] was found to be 20%; in assay [2] it was 99%.

Turning to `O=C(NCC1COCCN1C(=O)Cc1cccs1)c1ccc(-c2noc(C(F)(F)F)n2)cc1` (centres unmarked) [Example 21, N-((4-(2-thienylacetyl)morpholin-3-yl)methyl)-4-(5-(trifluoromethyl)-1,2,4-oxadiazol-3-yl)benzamide], the values for the inhibition at 1 µM in assay [1] and in assay [2] were 28% and 97%, respectively.

On to `O=C(NCC1COCCN1C(=O)CCc1ccccc1)c1ccc(-c2noc(C(F)(F)F)n2)cc1` (centres unmarked) [Example 22, N-((4-(3-phenylpropanoyl)morpholin-3-yl)methyl)-4-(5-(trifluoromethyl)-1,2,4-oxadiazol-3-yl)benzamide], for which the inhibition at 1 µM in assay [1] was found to be 23%; in assay [2], 100%.

For the molecule `O=C(NCC1COCCN1C(=O)c1ccc(-c2ccccc2)cc1)c1ccc(-c2noc(C(F)(F)F)n2)cc1` (centres unmarked) [Example 23, N-((4-(biphenyl-4-ylcarbonyl)morpholin-3-yl)methyl)-4-(5-(trifluoromethyl)-1,2,4-oxadiazol-3-yl)benzamide], the inhibition at 1 µM in assay [1] amounted to 36%; in assay [2], 95%.

With `O=C(NCC1COCCN1C(=O)C1CC1)c1ccc(-c2noc(C(F)(F)F)n2)cc1` (centres unmarked) [Example 24, N-((4-(cyclopropylcarbonyl)morpholin-3-yl)methyl)-4-(5-(trifluoromethyl)-1,2,4-oxadiazol-3-yl)benzamide], the inhibition at 1 µM in assay [1] was determined as 8%; in assay [2], 93%.

Turning to `O=C(NCC1COCCN1C(=O)C1CCCCC1)c1ccc(-c2noc(C(F)(F)F)n2)cc1` (centres unmarked) [Example 25, N-((4-(cyclohexylcarbonyl)morpholin-3-yl)methyl)-4-(5-(trifluoromethyl)-1,2,4-oxadiazol-3-yl)benzamide], the inhibition at 1 µM in assay [1] turned out to be 20%; in assay [2], 102%.

`O=C(NCC1COCCN1C(=O)C1CCOCC1)c1ccc(-c2noc(C(F)(F)F)n2)cc1` (centres unmarked) [Example 26, N-((4-(tetrahydro-2H-pyran-4-ylcarbonyl)morpholin-3-yl)methyl)-4-(5-(trifluoromethyl)-1,2,4-oxadiazol-3-yl)benzamide]: the inhibition at 1 µM in assay [1] was 10%; in assay [2], 95%.

For the molecule `O=C(NCC1COCCN1C(=O)c1cccc(C(F)(F)F)c1)c1ccc(-c2noc(C(F)(F)F)n2)cc1` (centres unmarked) [Example 27, N-((4-(3-(trifluoromethyl)benzoyl)morpholin-3-yl)methyl)-4-(5-(trifluoromethyl)-1,2,4-oxadiazol-3-yl)benzamide], the inhibition at 1 µM in assay [1] came to 14%; in assay [2] it was 99%.

On to `N#Cc1cccc(C(=O)N2CCOCC2CNC(=O)c2ccc(-c3noc(C(F)(F)F)n3)cc2)c1` (centres unmarked) [Example 28, N-((4-(3-cyanobenzoyl)morpholin-3-yl)methyl)-4-(5-(trifluoromethyl)-1,2,4-oxadiazol-3-yl)benzamide], for which the inhibition at 1 µM in assay [1] was 14%; in assay [2], 98%.

Take `COc1cccc(C(=O)N2CCOCC2CNC(=O)c2ccc(-c3noc(C(F)(F)F)n3)cc2)c1` (centres unmarked) [Example 29, N-((4-(3-methoxybenzoyl)morpholin-3-yl)methyl)-4-(5-(trifluoromethyl)-1,2,4-oxadiazol-3-yl)benzamide]: the inhibition at 1 µM in assay [1] worked out at 19%; in assay [2] it was 99%.

`O=C(NCC1COCCN1C(=O)c1cc(Cl)cc(Cl)c1)c1ccc(-c2noc(C(F)(F)F)n2)cc1` (centres unmarked) [Example 30, N-((4-(3,5-dichlorobenzoyl)morpholin-3-yl)methyl)-4-(5-(trifluoromethyl)-1,2,4-oxadiazol-3-yl)benzamide]: the inhibition at 1 µM in assay [1] turned out to be 24%; in assay [2], 98%.

Source of the values: patent US10081624B2, “Heterocyclic compound” (Takeda Pharmaceutical Company Limited, priority 2014, dated 2018).
